Molecular target: human NAMPT (Homo sapiens (Human), UniProt P43490)
Assay: NMN fluorescence biochemical assay (human recombinant NAMPT enzyme assay)
How it was run: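 NMN formed was detected by fluorescence (Ex/Em 355/460 nm) after acetophenone, KOH and formic acid derivatization. The cell-free reaction ran 60 min at ambient temperature with 6 nM human NAMPT, 150 μM nicotinamide, 20 μM PRPP, 2.5 mM ATP, pH 7.2 HEPES, and compound dose responses.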

human NAMPT, sequence (P43490 whole entry): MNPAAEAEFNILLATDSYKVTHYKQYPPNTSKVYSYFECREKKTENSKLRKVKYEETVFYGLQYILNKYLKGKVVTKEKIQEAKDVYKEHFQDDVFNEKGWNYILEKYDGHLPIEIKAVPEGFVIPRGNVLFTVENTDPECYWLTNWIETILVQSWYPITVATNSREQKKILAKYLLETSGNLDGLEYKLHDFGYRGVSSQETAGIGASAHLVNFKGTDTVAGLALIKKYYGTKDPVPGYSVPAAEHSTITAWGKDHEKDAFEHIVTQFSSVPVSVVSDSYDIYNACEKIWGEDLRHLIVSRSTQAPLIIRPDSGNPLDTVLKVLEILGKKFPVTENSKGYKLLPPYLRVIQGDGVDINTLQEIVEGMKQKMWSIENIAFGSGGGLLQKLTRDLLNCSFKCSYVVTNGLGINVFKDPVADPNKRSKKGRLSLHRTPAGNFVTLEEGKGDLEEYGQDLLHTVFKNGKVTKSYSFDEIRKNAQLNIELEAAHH

Q: `C[C@H](NC(=O)[C@H]1C[C@@H]2[C@H](C1)C2(F)F)c1ccc(NC(=O)OCc2cnco2)cc1` [Compound 230, 1,3-oxazol-5-ylmethyl N-{4-[(1S)-1-{[(1R,3r,5S)-6,6-difluorobicyclo[3.1.0]hexan-3-yl]formamido}ethyl]phenyl}carbamate] was tested. Which “AC1.4 Human” value did it give?
A: The value was 2.13 µM.

Q: And the EC50?
A: The EC50 was 15.3 µM.

Q: Which results are given for `Cc1ccc(C(=O)NCc2ccc(NC(=O)OCc3ccc(Cl)cc3)cc2)nc1` [Compound 214, (4-chlorophenyl)methyl N-(4-{[(5-methylpyridin-2-yl)formamido]methyl}phenyl)carbamate]?
A: AC1.4 Human: 1.96 µM; EC50: 9.59 µM

Q: `O=C(Nc1ccc(Cc2ccncc2)cc1)OCc1cncs1` [Compound 201, thiazol-5-ylmethyl (4-(pyridin-4-ylmethyl)phenyl)carbamate] was tested. Which “AC1.4 Human” value did it give?
A: Its value is 1.78 µM.

Q: What about the EC50 of the same molecule?
A: Its EC50 is 26.4 µM.

Q: How did the “AC1.4 Human” value turn out when `O=C(Nc1ccc(CN2CCN(C3COC3)CC2)cc1)OCc1ccc(Cl)cc1` [Compound 223, (4-chlorophenyl)methyl N-(4-{[4-(oxetan-3-yl)piperazin-1-yl]methyl}phenyl)carbamate] was run?
A: The value was 2.05 µM.

Q: And the EC50?
A: The EC50 was 17.6 µM.

Q: What does the source list for `O=C(Nc1ccc(CC2C3CCC2CNC3)cc1)OCc1cnco1` (stereo not shown) [Compound 426, oxazol-5-ylmethyl (4-((3-azabicyclo[3.2.1]octan-8-yl)methyl)phenyl)carbamate]?
A: AC1.4 Human: 1.62 µM; EC50: 32.4 µM

Q: Which “AC1.4 Human” value does the source give for `Cc1ncoc1C(=O)N[C@@H](C)c1ccc(NC(=O)OCc2ccc(Cl)cc2)cc1` [Compound 152, (4-chlorophenyl)methyl N-{4-[(1S)-1-[(4-methyl-1,3-oxazol-5-yl)formamido]ethyl]phenyl}carbamate] here?
A: The value was 1.27 µM.

Q: What about the EC50 of the same molecule?
A: Its EC50 is 10.6 µM.

Q: `CN(Cc1ccc(NC(=O)OCc2ccc(Cl)cc2)cc1)C(=O)c1ccncc1F` [Compound 36, (4-chlorophenyl)methyl N-(4-{[1-(3-fluoropyridin-4-yl)-N-methylformamido]methyl}phenyl)carbamate] was tested. Which “AC1.4 Human” value did it give?
A: Its value is 0.40 µM.

Q: And the EC50?
A: The EC50 was 1 µM.

Q: For `O=C(Nc1ccc(CC(=O)N2CCCC[C@H]2CO)cc1)OCc1ccc(Cl)cc1` [Compound 257, (4-chlorophenyl)methyl N-(4-{2-[(2S)-2-(hydroxymethyl)piperidin-1-yl]-2-oxoethyl}phenyl)carbamate], which “AC1.4 Human” value is on record?
A: The value was 2.70 µM.

Q: And the EC50?
A: Its EC50 is 31.2 µM.

Q: What does the source list for `COc1ccc(COC(=O)Nc2ccc([C@H](C)C(=O)N3CCC[C@H]3CO)cc2)cc1` [Compound 341]?
A: AC1.4 Human: 11.08 µM; EC50: 55.6 µM

Q: Which “AC1.4 Human” value does the source give for `Cc1cnc(C(=O)NCc2ccc(NC(=O)OCc3ccc(Cl)cc3)cc2)o1` [Compound 294, (4-chlorophenyl)methyl N-(4-{[(5-methyl-1,3-oxazol-2-yl)formamido]methyl}phenyl)carbamate] here?
A: Its value is 4.19 µM.

Q: And the EC50?
A: Its EC50 is 46.5 µM.

Q: Which results are given for `CN(C)S(=O)(=O)N1C2CCC1CC(Cc1ccc(NC(=O)OCc3cnco3)cc1)C2` (stereo not shown) [Compound 405, oxazol-5-ylmethyl (4-((8-(N,N-dimethylsulfamoyl)-8-azabicyclo[3.2.1]octan-3-yl)methyl)phenyl)carbamate]?
A: AC1.4 Human: 0.11 µM; EC50: 3.42 µM

Q: How did the “AC1.4 Human” value turn out when `Cc1ncc(C(=O)NCc2ccc(NC(=O)OCc3ccc(Cl)cc3)cc2)cc1F` [Compound 146, (4-chlorophenyl)methyl N-(4-{[(5-fluoro-6-methylpyridin-3-yl)formamido]methyl}phenyl)carbamate] was run?
A: Its value is 1.20 µM.

Q: What about the EC50 of the same molecule?
A: The EC50 was 2.35 µM.

Q: Which results are given for `COc1cnn(C)c1C(=O)N[C@@H](C)c1ccc(NC(=O)OCc2ccc(Cl)cc2)cc1` [Compound 92, (4-chlorophenyl)methyl N-{4-[(1S)-1-[(4-methoxy-2-methylpyrazol-3-yl)formamido]ethyl]phenyl}carbamate]?
A: AC1.4 Human: 0.75 µM; EC50: 3.22 µM

Q: Which “AC1.4 Human” value does the source give for `O=C(Nc1ccc(Cc2ccncc2)cc1)OCc1cnsc1` [Compound 299, isothiazol-4-ylmethyl (4-(pyridin-4-ylmethyl)phenyl)carbamate] here?
A: Its value is 4.67 µM.

Q: What about the EC50 of the same molecule?
A: Its EC50 is 11.6 µM.

Q: Which “AC1.4 Human” value does the source give for `Cc1coc(C(=O)N[C@@H](C)c2ccc(NC(=O)OCc3ccc(Cl)cc3)cc2)n1` [Compound 243, 4-chlorobenzyl (S)-(4-(1-(4-methyloxazole-2-carboxamido)ethyl)phenyl)carbamate] here?
A: Its value is 2.38 µM.

Q: What about the EC50 of the same molecule?
A: The EC50 was 26.3 µM.

Q: Which results are given for `CC(C)C(=O)N1CCC(Cc2ccc(NC(=O)OCc3cnco3)cc2)CC1` [Compound 35, oxazol-5-ylmethyl (4-((1-isobutyrylpiperidin-4-yl)methyl)phenyl)carbamate]?
A: AC1.4 Human: 0.39 µM; EC50: 37.9 µM

Q: Which “AC1.4 Human” value does the source give for `O=C(Nc1ccc(Cc2ccccn2)cc1)OCc1ccc(Cl)cc1` [Compound 233, 4-chlorobenzyl (4-(pyridin-2-ylmethyl)phenyl)carbamate] here?
A: Its value is 2.18 µM.

Q: And the EC50?
A: The EC50 was 7.8 µM.

Q: With `CC(=O)N1CC2CCC(C1)C2Cc1ccc(NC(=O)OCc2cnco2)cc1` (stereo not shown) [Compound 424, oxazol-5-ylmethyl (4-((3-acetyl-3-azabicyclo[3.2.1]octan-8-yl)methyl)phenyl)carbamate] as the molecule, how does the “AC1.4 Human” value read?
A: Its value is 0.04 µM.

Q: And the EC50?
A: The EC50 was 1.13 µM.

Q: What does the source list for `CN1CC(C(=O)NCc2ccc(NC(=O)OCc3ccc(Cl)cc3)cc2)CC1=O` (stereo not shown) [Compound 277, (4-chlorophenyl)methyl N-(4-{[(1-methyl-5-oxopyrrolidin-3-yl)formamido]methyl}phenyl)carbamate]?
A: AC1.4 Human: 3.36 µM; EC50: 39.9 µM

Q: How did the “AC1.4 Human” value turn out when `CC1(O)CCN(C(=O)Cc2ccc(NC(=O)OCc3ccc(Cl)cc3)cc2)CC1` [Compound 116, (4-chlorophenyl)methyl N-{4-[2-(4-hydroxy-4-methylpiperidin-1-yl)-2-oxoethyl]phenyl}carbamate] was run?
A: Its value is 0.95 µM.

Q: And the EC50?
A: The EC50 was 6.77 µM.

Q: How did the “AC1.4 Human” value turn out when `O=C(Nc1ccc(CNC(=O)c2ccc(C(F)(F)F)nc2)cc1)OCc1ccc(Cl)cc1` [Compound 239, (4-chlorophenyl)methyl N-[4-({[6-(trifluoromethyl)pyridin-3-yl]formamido}methyl)phenyl]carbamate] was run?
A: Its value is 2.32 µM.

Q: And the EC50?
A: The EC50 was 1.89 µM.

Q: `O=C(Nc1ccc(CC2CCN(C(=O)C3CCC3)CC2)cc1)OCc1ccc(Cl)cc1` [Compound 102, 4-chlorobenzyl (4-((1-(cyclobutanecarbonyl)piperidin-4-yl)methyl)phenyl)carbamate] was tested. Which “AC1.4 Human” value did it give?
A: Its value is 0.82 µM.

Q: What about the EC50 of the same molecule?
A: The EC50 was 1.89 µM.

Q: `CCn1nccc1C(=O)NCc1ccc(NC(=O)OCc2ccc(Cl)cc2)cc1` [Compound 167, (4-chlorophenyl)methyl N-(4-{[(2-ethylpyrazol-3-yl)formamido]methyl}phenyl)carbamate] was tested. Which “AC1.4 Human” value did it give?
A: Its value is 1.39 µM.

Q: What about the EC50 of the same molecule?
A: The EC50 was 4.54 µM.

Q: Which results are given for `Cc1nn(C)c(C(=O)N[C@@H](C)c2ccc(NC(=O)OCc3ccc(Cl)cc3)cc2)c1C` [Compound 12, (4-chlorophenyl)methyl N-{4-[(1S)-1-[(2,4,5-trimethylpyrazol-3-yl)formamido]ethyl]phenyl}carbamate]?
A: AC1.4 Human: 0.22 µM; EC50: 0.34 µM

Q: For `O=C(Nc1ccc(Cc2ccncc2)cc1)OCc1cn[nH]c1` [Compound 99, (1H-pyrazol-4-yl)methyl (4-(pyridin-4-ylmethyl)phenyl)carbamate], which “AC1.4 Human” value is on record?
A: The value was 0.79 µM.

Q: And the EC50?
A: Its EC50 is 51.2 µM.

Q: How did the “AC1.4 Human” value turn out when `CC(=O)N1CCC2(CC(c3ccc(NC(=O)OCc4cnco4)cc3F)C2)C1` (single isomer, unassigned) [Compound 372] was run?
A: Its value is 0.09 µM.

Q: And the EC50?
A: Its EC50 is 5.64 µM.
